Patent US10456404B2, “Targeting cGMP-related phosphodiesterases to reduce cyst formation in cystic kidney disease, and related materials and methods” (Indiana University Research and Technology Corporation, priority 2015, dated 2019)
Read-outs that look alike come from different tables or passages of the source.

Tests used:
[1] = test system: Telomerase immortalized polycystic kidney cells; experiment: cyst formation by immortalized polycystic kidney cells in 3D forskolin-supplemented Matrigel culture; assay type: cell-based, human
Source text: Telomerase immortalized polycystic kidney cells, as described in Herbert et al. (PLoS One (2013), 8(1): e55191; which is hereby incorporated by reference in its entirety), were used to test the effect of sildenafil citrate on renal cyst growth. Cells from polycystic kidneys removed from patients for medically indicated reasons, removed from any research program, were obtained. The cells were obtained from the pathology laboratory. Cyst tissue was microdissected from the kidneys, and cells were isolated and grown in primary culture. The cells were then immortalized using retroviral techniques well known in the art. Following confirmation of an immortal phenotype, it was established that the polycystic cyst epithelial cells formed cyst structures when grown in 3D forskolin-supplemented Matrigel culture. Immortalized polycystic kidney cells were treated with microgram dosages of sildenafil citrate of 4 μg/ml, 2 μg/ml, and 1 μg/ml. […] Matched controls were sham-treated with vehicle but no drug. […] Dosages tested were consistent with the range of serum drug levels that occur when the drug is prescribed for erectile dysfunction.

[2] = test system: Telomerase immortalized polycystic kidney cells; experiment: as above; assay type: cell-based, human; conditions: for average cyst area vs vehicle sham-treated matched control: FIG. 1
[3] = test system: PDE6; conditions: cited from earlier work
[4] = molecular target: PDE5 (Homo sapiens, UniProt O76074); conditions: cited from earlier work
[5] = molecular target: human PDE9 (Homo sapiens, UniProt O76083); conditions: cited from earlier work
[6] = test system: other PDEs; conditions: cited from earlier work
[7] = test system: cGMP; conditions: in vivo; cited from earlier work
[8] = test system: preclinical cognition models; conditions: in vivo; cited from earlier work
[9] = test system: amyloid precursor protein overexpressing transgenic mice; conditions: cited from earlier work

human PDE9, sequence (O76083 whole entry): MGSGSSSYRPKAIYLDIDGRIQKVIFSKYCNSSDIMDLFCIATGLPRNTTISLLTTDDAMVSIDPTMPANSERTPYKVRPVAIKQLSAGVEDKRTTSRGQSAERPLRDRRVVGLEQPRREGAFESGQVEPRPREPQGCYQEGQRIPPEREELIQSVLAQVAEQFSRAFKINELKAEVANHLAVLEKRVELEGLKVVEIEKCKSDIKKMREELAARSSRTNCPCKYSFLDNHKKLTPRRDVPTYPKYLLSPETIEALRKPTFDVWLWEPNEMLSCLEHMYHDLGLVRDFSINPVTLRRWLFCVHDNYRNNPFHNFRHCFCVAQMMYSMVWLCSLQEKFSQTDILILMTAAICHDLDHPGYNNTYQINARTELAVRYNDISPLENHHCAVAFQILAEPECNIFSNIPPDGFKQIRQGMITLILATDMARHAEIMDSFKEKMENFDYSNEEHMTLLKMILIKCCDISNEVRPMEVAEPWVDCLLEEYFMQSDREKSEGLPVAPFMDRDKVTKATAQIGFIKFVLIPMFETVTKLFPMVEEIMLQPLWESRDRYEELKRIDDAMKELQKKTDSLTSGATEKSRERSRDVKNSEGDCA

For `CCCc1nn(C)c2c(=O)[nH]c(-c3cc(S(=O)(=O)N4CCN(C)CC4)ccc3OCC)nc12.O=C(O)CC(O)(CC(=O)O)C(=O)O` [sildenafil citrate, 1-[[3-(6,7-dihydro-1-methyl-7-oxo-3-propyl-1H-pyrazolo[4,3-d]pyrimidin-5-yl)-4-ethoxyphenyl]sulfonyl]-4-methylpiperazine citrate], the “Average cyst size compared to control” value ([1]; 1 μg/ml, p<0.01) was “significantly decreased”, the “average cyst area vs vehicle sham-treated matched control” value ([1]; 1000 ng/ml, p<0.01, FIG. 1) was “significantly reduced” and the “Average cyst size compared to control” value ([1]; 2 μg/ml, p<0.01) was “significantly decreased”. The “Average cyst size compared to control” value ([1]; 4 μg/ml, p<1 E−6) was “significantly decreased”, the “average cyst area vs vehicle sham-treated matched control” value ([2]; 250 ng/ml, p<1.05 E−8) was “significantly reduced” and the “average cyst area vs vehicle sham-treated matched control” value ([2]; 500 ng/ml, p<0.01) was “significantly reduced”. The “dose response of cyst area reduction” value ([2]; 250, 500, 1000 ng/ml) was “No dose response” and the “large cyst formation (cyst structures of greater than 150μ^2), frequency distribution” value ([2]; 250, 500, 1000 ng/ml, FIG. 2) was “completely inhibited”.
For `CCCc1nc(C)c2c(=O)nc(-c3cc(S(=O)(=O)N4CCN(CC)CC4)ccc3OCC)[nH]n12` [Vardenafil, 2-[2-ethoxy-5-(4-ethylpiperazin-1-yl)sulfonylphenyl]-5-methyl-7-propyl-1H-imidazo[5,1-f][1,2,4]triazin-4-one], the PDE6 inhibition [3] is listed as “potent PDE6 inhibitor”.
In the case of `CCCc1nc(C)c2c(=O)[nH]c(-c3cc(S(=O)(=O)N4CCNCC4)ccc3OCC)nn12` [M1], the “PDE5 inhibition potency relative to the parent drug” value ([4]; parent drug vardenafil) is given as “reduced potency”.
For `C[C@H](Cc1nc2c(cnn2-c2ccccc2Cl)c(=O)[nH]1)C(F)(F)F` [BAY 73-6691, 1-(2-chlorophenyl)-6-[(2R)-3,3,3-trifluoro-2-methylpropyl]-1,5-dihydro-4H-pyrazolo[3,4-d]pyrimidine-4-one], the “inhibition of human PDE9 activity in vitro” value [5] is given as “selectively inhibit” and the “activity against other PDEs” value [6] is given as “only moderate activity”.
For `CCCc1nn(C)c2c(=O)[nH]c(-c3cc(S(=O)(=O)N4CCNCC4)ccc3OCC)nc12` [UK-103,320], the “PDE5 inhibition potency relative to the parent drug” value ([4]; parent drug sildenafil) is given as “approximately 50%”.
In the case of `CCCOc1ccccc1-c1nc2[nH][nH]nc-2c(=O)n1` [Zaprinast, 5-(2-propoxyphenyl)-2,3-dihydrotriazolo[4,5-d]pyrimidin-7-one], the “PDE6 versus PDE5 inhibition potency” value [3] is listed as “inhibit PDE6 more potently than PDE5”.
With `CCCc1nn(C)c2c(=O)[nH]c(-c3cc(S(=O)(=O)N4CCN(C)CC4)ccc3OCC)nc12` [sildenafil, 5[2-ethoxy-5-(4-methyl-1-piperazinyl-sulphonyl)phenyl]-1-methyl-3-n-propyl-1,6-dihydro-7H-pyrazolo[4,3-d]pyrimidin-7-one] the “large cysts in photographs” value ([1]; 1:250 dilution of drug in vehicle from a stock, FIG. 3B) was “No large cysts were observed”, the “large cysts in photographs” value ([1]; 1:500 dilution of drug in vehicle from a stock, FIG. 4B) was “No large cysts were observed” and the “large cysts in photographs” value ([1]; 1:1000 dilution of drug in vehicle from a stock, FIG. 5B) was “No large cysts were observed”.
In the case of `C[C@@H]1CN(Cc2ncccn2)C[C@H]1c1nc2c(cnn2C2CCOCC2)c(=O)[nH]1` [PF-04447943, 6-[(3S,4S)-4-methyl-1-(pyrimidin-2-ylmethyl)pyrrolidin-3-yl]-1-(tetrahydro-2H-pyran-4-yl)-1,5-dihydro-4H-pyrazolo[3,4-d]pyrimidin-4-one], the “cGMP in brain and cerebrospinal fluid” value [7] is given as “elevates”, the “memory in preclinical cognition models” value [8] is given as “improves” and the synaptic plasticity [8] is given as “enhances”. The “decreases in dendritic spine density” value [9] was “prevents”.
